Measurements as given in ChEMBL document CHEMBL1126524, “Derivatives of quinuclidine as 5-HT3 receptor antagonists: influence of an additional carbonyl group on the recognition of chirality by the receptor” (Bioorg Med Chem Lett, 1993).

These compounds were tested against Serotonin 3 (5-HT3) receptor (Rattus norvegicus) (UniProt P35563+Q9JJ16) (assay: Compound was tested as a 5-hydroxytryptamine 3 receptor antagonist in the rat by assessment of the inhibition of the Bezold-Jarisch effect, when administered intravenously).
Format: functional
Work on `O=C1c2ccc3ccccc3c2C(=O)N1[C@H]1CN2CCC1CC2` yielded an ID50 of 18.6 mg/kg.

Each compound was assayed against T1, Serotonin 3 (5-HT3) receptor (Rattus norvegicus, UniProt P35563+Q9JJ16) (assay: Binding affinity at 5-hydroxytryptamine 3 receptor in rat entorhinal cortex by [3H]BRL-43694 displacement.).
T1 sequence (P35563 whole entry): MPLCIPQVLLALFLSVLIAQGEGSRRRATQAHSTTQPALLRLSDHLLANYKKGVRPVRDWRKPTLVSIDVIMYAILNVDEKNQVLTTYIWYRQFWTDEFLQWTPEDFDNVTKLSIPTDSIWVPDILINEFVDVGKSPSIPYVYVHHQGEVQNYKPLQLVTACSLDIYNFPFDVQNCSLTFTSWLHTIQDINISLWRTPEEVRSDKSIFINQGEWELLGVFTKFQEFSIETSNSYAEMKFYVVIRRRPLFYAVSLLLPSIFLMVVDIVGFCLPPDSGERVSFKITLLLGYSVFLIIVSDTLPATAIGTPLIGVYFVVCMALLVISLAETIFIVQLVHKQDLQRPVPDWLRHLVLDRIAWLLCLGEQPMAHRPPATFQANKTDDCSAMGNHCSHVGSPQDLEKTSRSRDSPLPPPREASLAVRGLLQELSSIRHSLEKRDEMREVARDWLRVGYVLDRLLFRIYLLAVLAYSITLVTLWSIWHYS
T1 sequence (Q9JJ16 whole entry): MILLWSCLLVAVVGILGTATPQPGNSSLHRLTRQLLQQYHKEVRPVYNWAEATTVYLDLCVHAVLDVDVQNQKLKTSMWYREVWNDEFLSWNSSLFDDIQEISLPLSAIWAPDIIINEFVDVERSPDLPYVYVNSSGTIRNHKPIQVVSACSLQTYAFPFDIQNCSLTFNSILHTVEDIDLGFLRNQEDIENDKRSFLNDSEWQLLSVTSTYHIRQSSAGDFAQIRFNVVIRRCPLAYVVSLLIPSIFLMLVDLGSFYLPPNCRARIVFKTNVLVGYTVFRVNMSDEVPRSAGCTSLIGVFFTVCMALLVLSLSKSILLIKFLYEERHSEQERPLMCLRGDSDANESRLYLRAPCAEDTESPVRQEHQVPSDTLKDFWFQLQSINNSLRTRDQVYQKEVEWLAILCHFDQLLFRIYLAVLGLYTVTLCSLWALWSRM
Format: tissue-based
For `CCCOc1ccccc1C(=O)N[C@H]1CN2CCC1CC2`, the Ki was 71.6 nM.
`COc1ccccc1C(=O)N[C@@H]1CN2CCC1CC2` was tested, and the Ki was 23.4 nM.
`CCCOc1ccccc1C(=O)N[C@@H]1CN2CCC1CC2` showed a Ki of 11.2 nM.
`CCOc1ccccc1C(=O)N[C@H]1CN2CCC1CC2` was tested, and the Ki was 100 nM.
For `COc1ccc2ccccc2c1C(=O)NC1CN2CCC1CC2` (centres undefined), the Ki was 342 nM.
In the case of `O=C1c2ccc3ccccc3c2C(=O)N1[C@@H]1CN2CCC1CC2`, the Ki is reported as 119 nM.
Compound `O=C(N[C@@H]1CN2CCC1CC2)c1ccccc1` has a Ki of 147 nM.
For `O=C(N[C@@H]1CN2CCC1CC2)c1cccc2ccccc12`, the Ki was 32 nM.
`Nc1ccc2cccc3c2c1C(=O)N(C1CN2CCC1CC2)C3=O` (centres undefined) showed a Ki of 0.15 nM.
Compound `COc1ccccc1C(=O)N[C@H]1CN2CCC1CC2` has a Ki of 409 nM.
Compound `CCOc1ccccc1C(=O)N[C@@H]1CN2CCC1CC2` has a Ki of 18.9 nM.
`O=C(N[C@H]1CN2CCC1CC2)c1ccccc1` gave a Ki of 1890 nM.
`O=C1c2ccc3ccccc3c2C(=O)N1[C@H]1CN2CCC1CC2` showed a Ki of 6 nM.
